Laboratory results from the NIST ThermoML archive (doi:10.1021/je900557u).
± gives the expanded uncertainty stated by the source.

What was measured:
[1] = xn = mol fraction of the nth substance listed; conditions: 298.15 K, 101 kPa, Liquid, Vibrating tube method
[2] = refractive index (Na D-line) (dimensionless); conditions: 298.15 K; 101.33 kPa; Liquid; refractometer
[3] = 298.15 K; 101.33 kPa; Liquid; Vibrating tube method

CCc1ccccc1 [ethylbenzene] + CCCCCC
mass density ([1]; x2 = 0): 862.51 ± 0.11 kg/m3 | mass density ([1]; x2 = 0.0903): 843.13 ± 0.28 kg/m3 | mass density ([1]; x2 = 0.1776): 824.35 ± 0.29 kg/m3 | mass density ([1]; x2 = 0.2675): 805.21 ± 0.29 kg/m3 | mass density ([1]; x2 = 0.3777): 781.93 ± 0.29 kg/m3 | mass density ([1]; x2 = 0.4931): 757.81 ± 0.3 kg/m3 | mass density ([1]; x2 = 0.5929): 737.22 ± 0.31 kg/m3 | mass density ([1]; x2 = 0.6947): 716.43 ± 0.32 kg/m3 | mass density ([1]; x2 = 0.7984): 695.45 ± 0.33 kg/m3 | mass density ([1]; x2 = 0.8942): 676.28 ± 0.34 kg/m3

CCCCCC [hexane]
refractive index [2]: 1.37234 ± 0.00024 | mass density [3]: 655.19 ± 0.26 kg/m3

Cc1ccccc1 [toluene]
refractive index [2]: 1.49399 ± 0.00014 | mass density [3]: 862.17 ± 0.11 kg/m3

Cc1ccccc1 [toluene] + CCCCCC
mass density ([1]; x2 = 0): 862.17 ± 0.11 kg/m3

CCc1ccccc1 [ethylbenzene]
refractive index [2]: 1.49304 ± 0.00014 | mass density [3]: 862.51 ± 0.11 kg/m3

CCCCCC [hexane] + Cc1ccccc1
mass density ([1]; x1 = 0.083): 841.73 ± 0.31 kg/m3 | mass density ([1]; x1 = 0.1713): 820.75 ± 0.3 kg/m3 | mass density ([1]; x1 = 0.298): 791.72 ± 0.3 kg/m3 | mass density ([1]; x1 = 0.396): 770.3 ± 0.3 kg/m3 | mass density ([1]; x1 = 0.5011): 748.44 ± 0.3 kg/m3 | mass density ([1]; x1 = 0.5949): 729.53 ± 0.3 kg/m3 | mass density ([1]; x1 = 0.6973): 709.61 ± 0.3 kg/m3 | mass density ([1]; x1 = 0.7961): 691.1 ± 0.31 kg/m3 | mass density ([1]; x1 = 0.8946): 673.45 ± 0.32 kg/m3 | mass density ([1]; x1 = 1): 655.19 ± 0.25 kg/m3

CCCCCC [hexane] + CCc1ccccc1
mass density ([1]; x1 = 1): 655.19 ± 0.25 kg/m3

CCOS(=O)(=O)[O-].CC[n+]1cccc(C)c1 [1-ethyl-3-methylpyridinium ethylsulfate]
refractive index [2]: 1.50591 ± 0.00024 | mass density [3]: 1219.61 ± 0.42 kg/m3
